Results: patent US11021479B2, “Pyridoquinazoline derivatives useful as protein kinase inhibitors” (ONCOSTELLAE, S.L., priority 2017, dated 2021)

How the values were obtained:
Format in all cases: biochemical
[1] = biological target: T1, JAK3 (Homo sapiens, UniProt P52333); experiment: Functional assay of protein Janus kinases (Caliper mobility shift), JAK3; settings: ATP 8 μM, incubation 30 min; read-out: JAK3 enzymatic activity (IC50) score
T1 construct: purchased Carna Biosciences 08-046
Experimental: (§1) The functional assays of protein Janus kinases were carried out in 384-well plates using a final volume of 30 μl. […] The reaction was reads in a “Caliper EzReader LabChip 3000” (Caliper, Hopkinton, Mass.) reader, based on electrophoretic mobility of the fluorescent substrate and the phosphorylated product.
(§2) The inhibition percentages were calculated by comparison between control reactions, for 100% of inhibition and reactions with only DMSO for 0% of inhibition.

[2] = biological target: T2, JAK1 (Homo sapiens, UniProt P23458); experiment: Functional assay of protein Janus kinases (Caliper mobility shift), JAK1; settings: ATP 100 μM, incubation 150 min; read-out: JAK1 enzymatic activity (IC50) score
T2 construct: purchased Carna Biosciences 08-144
T2 sequence (P23458 850-1154 limits assumed): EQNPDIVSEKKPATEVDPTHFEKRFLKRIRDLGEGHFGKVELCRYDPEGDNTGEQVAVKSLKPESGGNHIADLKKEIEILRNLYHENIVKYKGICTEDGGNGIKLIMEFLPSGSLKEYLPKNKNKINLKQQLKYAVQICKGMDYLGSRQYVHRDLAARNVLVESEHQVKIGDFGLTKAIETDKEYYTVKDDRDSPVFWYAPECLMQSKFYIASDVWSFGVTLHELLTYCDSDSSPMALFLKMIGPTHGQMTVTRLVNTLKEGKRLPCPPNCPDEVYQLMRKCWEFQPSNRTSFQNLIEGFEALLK
Experimental: as §1, §2

[3] = biological target: T3, JAK2 (Homo sapiens, UniProt O60674); experiment: Functional assay of protein Janus kinases (Caliper mobility shift), JAK2; settings: ATP 300 μM, incubation 30 min; read-out: JAK2 enzymatic activity (IC50) score
T3 construct: purchased Carna Biosciences 08-045
T3 sequence (O60674 826-1132 limits assumed): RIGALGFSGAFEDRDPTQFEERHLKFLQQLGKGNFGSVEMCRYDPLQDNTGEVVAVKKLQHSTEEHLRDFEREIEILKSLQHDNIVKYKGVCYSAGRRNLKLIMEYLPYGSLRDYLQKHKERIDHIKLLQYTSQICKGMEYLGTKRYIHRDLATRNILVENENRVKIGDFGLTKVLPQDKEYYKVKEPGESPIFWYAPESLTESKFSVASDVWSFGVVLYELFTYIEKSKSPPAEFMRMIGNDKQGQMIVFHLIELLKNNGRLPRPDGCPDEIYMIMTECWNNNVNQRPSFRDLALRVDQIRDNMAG
Experimental: as §1, §2

[4] = biological target: T4, Human ARK5/NUAK1 (Homo sapiens, UniProt O60285); experiment: ARK5 activity inhibition test (Reaction Biology kit, 33P-ATP filter assay); settings: ATP 10 μM, peptide substrate 20 μM, 120 min; read-out: ARK5 enzymatic activity (IC50) score
T4 construct: purchased Reaction Biology ARK5/NUAK1
T4 sequence (O60285 1-661): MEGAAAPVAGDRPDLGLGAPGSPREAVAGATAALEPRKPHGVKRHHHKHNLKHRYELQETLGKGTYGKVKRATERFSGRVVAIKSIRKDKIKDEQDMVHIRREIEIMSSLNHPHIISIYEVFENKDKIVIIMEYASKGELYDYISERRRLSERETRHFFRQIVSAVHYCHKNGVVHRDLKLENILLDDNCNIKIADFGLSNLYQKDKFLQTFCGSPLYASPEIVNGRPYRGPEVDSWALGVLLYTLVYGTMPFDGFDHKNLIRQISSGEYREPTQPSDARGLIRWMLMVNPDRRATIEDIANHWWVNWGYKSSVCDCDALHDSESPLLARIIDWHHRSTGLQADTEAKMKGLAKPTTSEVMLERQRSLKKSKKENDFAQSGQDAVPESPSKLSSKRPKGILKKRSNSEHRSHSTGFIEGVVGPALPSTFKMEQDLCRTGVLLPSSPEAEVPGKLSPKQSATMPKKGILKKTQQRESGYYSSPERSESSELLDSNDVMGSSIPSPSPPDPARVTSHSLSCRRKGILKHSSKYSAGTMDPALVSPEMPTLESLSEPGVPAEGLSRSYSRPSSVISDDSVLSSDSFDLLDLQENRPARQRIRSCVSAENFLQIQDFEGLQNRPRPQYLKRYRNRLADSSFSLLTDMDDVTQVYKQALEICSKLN
Experimental: Activity test was carried out using the kit from Reaction Biology (CAT #: ARK5/NUAK1). The test uses enzyme Human ARK5/NUAK1 and the substrate is the peptide […] (SEQ ID NO: 1), 20 μM and ATP 10 μM. Other reagents are the following: Base Reaction buffer; 20 mM Hepes (pH 7.5), 10 mM MgCl2, 1 mM EGTA, 0.02% Brij35, 0.02 mg/ml BSA, 0.1 mM Na3VO4, 2 mM DTT, 1% DMSO.
The reaction was carried out following the instructions of manufacturer. Briefly, kinase/substrate pairs were prepared in reaction buffer. Compounds were delivered into the reaction, followed 20 minutes later by addition of a mixture of ATP (Sigma, St. Louis Mo.) and ^33P ATP (Perkin Elmer, Waltham Mass.) to a final concentration of 10 μM. Reactions were carried out at room temperature for 120 min, followed by spotting of the reactions onto P81 ion exchange filter paper (Whatman Inc., Piscataway, N.J.). Unbound phosphate was removed by extensive washing of filters in 0.75% phosphoric acid. […] IC50 values and curve fits were obtained using Prism (GraphPad Software).

[5] = biological target: T5, TYK2 (Homo sapiens, UniProt P29597); experiment: Functional assay of protein Janus kinases (Caliper mobility shift), TYK2; settings: ATP 20 μM, incubation 45 min; read-out: TYK2 enzymatic activity (IC50) score
T5 construct: purchased Carna Biosciences 08-147
T5 sequence (P29597 871-1187 limits assumed): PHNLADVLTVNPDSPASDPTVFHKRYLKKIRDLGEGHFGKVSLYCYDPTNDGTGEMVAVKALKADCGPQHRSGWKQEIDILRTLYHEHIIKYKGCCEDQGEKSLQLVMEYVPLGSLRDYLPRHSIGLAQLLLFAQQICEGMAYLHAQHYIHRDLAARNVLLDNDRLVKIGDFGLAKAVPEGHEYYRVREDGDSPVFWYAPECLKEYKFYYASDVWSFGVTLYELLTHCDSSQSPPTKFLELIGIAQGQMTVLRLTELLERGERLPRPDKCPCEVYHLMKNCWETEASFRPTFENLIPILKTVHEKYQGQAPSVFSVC
Experimental: as §1, §2

T1 sequence (P52333 795-1124 limits assumed): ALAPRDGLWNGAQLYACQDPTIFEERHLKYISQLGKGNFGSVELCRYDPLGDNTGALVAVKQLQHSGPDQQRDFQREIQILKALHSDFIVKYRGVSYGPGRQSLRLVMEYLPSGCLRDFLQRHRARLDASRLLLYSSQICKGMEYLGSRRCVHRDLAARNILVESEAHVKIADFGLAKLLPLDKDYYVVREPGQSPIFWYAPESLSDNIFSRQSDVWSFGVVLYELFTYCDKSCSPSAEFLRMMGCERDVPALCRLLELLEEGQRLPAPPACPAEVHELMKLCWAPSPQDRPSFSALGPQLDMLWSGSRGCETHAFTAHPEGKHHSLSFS

Row | Structure (SMILES) | IC50 [1] [nM] | IC50 [2] [nM] | IC50 [3] [nM] | IC50 [4] [nM] | IC50 [5] [nM]
1 | O=C(NC1CCCCC1)c1cccn2c(=O)c3cc(-c4ccc(F)cc4)ccc3nc12 [Example 29, N-cyclohexyl-2-(4-fluorophenyl)-11-oxo-11H-pyrido[2,1-b]quinazoline-6-carboxamide] | 100 to 1000 | > 1000 | > 1000 | < 100 | > 1000
2 | O=C(NC1CCCCC1)c1cccn2c(=O)c3cc(-c4ccncc4)ccc3nc12 [Example 33, N-cyclohexyl-11-oxo-2-(pyridin-4-yl)-11H-pyrido[2,1-b]quinazoline-6-carboxamide] | < 100 | > 1000 | > 1000 | < 100 | < 100
3 | CN1CCN(c2ccc3nc4c(C(=O)NC5CCCCC5)cccn4c(=O)c3c2)CC1 [Example 36, N-cyclohexyl-2-(4-methylpiperazin-1-yl)-11-oxo-11H-pyrido[2,1-b]quinazoline-6-carboxamide] | < 100 | > 1000 | > 1000 | < 100 | < 100

More lines, now with the values ahead:

Row | IC50 [1] [nM] | IC50 [2] [nM] | IC50 [3] [nM] | IC50 [4] [nM] | IC50 [5] [nM] | Structure (SMILES)
4 | < 100 | > 1000 | > 1000 | < 100 | < 100 | O=C(NC1CCCC1)c1cccn2c(=O)c3cc(C4CC4)ccc3nc12 [Example 2, N-cyclopentyl-2-cyclopropyl-11-oxo-11H-pyrido[2,1-b]quinazoline-6-carboxamide]
5 | < 100 | > 1000 | > 1000 | < 100 | < 100 | O=C(NC1CCCCC1)c1cccn2c(=O)c3cc(N4CCOCC4)ccc3nc12 [Example 38, N-cyclohexyl-2-morpholino-11-oxo-11H-pyrido[2,1-b]quinazoline-6-carboxamide]
6 | < 100 |  |  | < 100 | < 100 | COc1ccc2nc3c(C(=O)NC4CCCCC4)cccn3c(=O)c2c1 [Example 20, N-cyclohexyl-2-methoxy-11-oxo-11H-pyrido[2,1-b]quinazoline-6-carboxamide]
7 | < 100 | > 1000 | > 1000 | < 100 | < 100 | O=C(NC1CCCCC1)c1cccn2c(=O)c3cc(C4CC4)ccc3nc12 [Example 1, N-cyclohexyl-2-cyclopropyl-11-oxo-11H-pyrido[2,1-b]quinazoline-6-carboxamide]
